Data: the NIST ThermoML archive (doi:10.1021/je101256z)
Where “and” joins values, the source holds several entries; their conditions need not be identical. Identical values can stand only once. Numbers after ± are expanded uncertainties.

Details: Liquid, Vibrating wire viscometry

Cc1cccc2ccccc12 [1-methylnaphthalene]
298.15 K
Details | viscosity
200 kPa | 2.9 ± 0.07 mPa·s and 2.89 ± 0.07 mPa·s
1000 kPa | 2.94 ± 0.07 mPa·s and 2.93 ± 0.07 mPa·s and 2.92 ± 0.07 mPa·s
10000 kPa | 3.24 ± 0.07 mPa·s
39900 kPa | 4.4 ± 0.1 mPa·s and 4.41 ± 0.1 mPa·s
40000 kPa | 4.42 ± 0.1 mPa·s
79900 kPa | 6.65 ± 0.15 mPa·s and 6.67 ± 0.15 mPa·s
80000 kPa | 6.68 ± 0.15 mPa·s and 6.65 ± 0.15 mPa·s
120100 kPa | 10.17 ± 0.24 mPa·s and 10.12 ± 0.23 mPa·s

CC(C)CCCCCCCOC(=O)c1ccccc1C(=O)OCCCCCCCC(C)C
Details | viscosity
274.07 K, 100 kPa | 606.7 ± 27 mPa·s
274.35 K, 100 kPa | 588.6 ± 26 mPa·s
282.95 K, 100 kPa | 270.2 ± 9.1 mPa·s
283.03 K, 100 kPa | 265.9 ± 8.9 mPa·s
298.15 K, 200 kPa | 87.63 ± 2 mPa·s [middle of 8 runs]
298.15 K, 10000 kPa | 112.08 ± 2.7 mPa·s and 112.26 ± 2.7 mPa·s
298.15 K, 20000 kPa | 143.67 ± 3.8 mPa·s and 143.41 ± 3.8 mPa·s and 143.42 ± 3.8 mPa·s
298.15 K, 40000 kPa | 231.39 ± 7.2 mPa·s [middle of 6 runs]
298.25 K, 100 kPa | 87.67 ± 2.1 mPa·s
305.15 K, 200 kPa | 57.12 ± 1.2 mPa·s [middle of 5 runs]
305.26 K, 100 kPa | 57.43 ± 1.2 mPa·s
313.15 K, 200 kPa | 37.1 ± 0.76 mPa·s [middle of 5 runs]
313.15 K, 10100 kPa | 46.34 ± 0.96 mPa·s and 46.33 ± 0.96 mPa·s and 46.23 ± 0.96 mPa·s
313.15 K, 20000 kPa | 57.28 ± 1.2 mPa·s and 57.35 ± 1.2 mPa·s and 57.32 ± 1.2 mPa·s
313.15 K, 40000 kPa | 87.15 ± 1.9 mPa·s and 87.13 ± 1.9 mPa·s and 87.03 ± 1.9 mPa·s
313.15 K, 59900 kPa | 130.49 ± 3.3 mPa·s and 130.29 ± 3.3 mPa·s
313.15 K, 60000 kPa | 130.33 ± 3.8 mPa·s
313.15 K, 80000 kPa | 194.08 ± 5.6 mPa·s and 194.41 ± 5.7 mPa·s and 195.2 ± 5.7 mPa·s
313.27 K, 100 kPa | 37.41 ± 0.78 mPa·s
327.83 K, 100 kPa | 19.32 ± 0.4 mPa·s
343.15 K, 200 kPa | 10.99 ± 0.23 mPa·s [middle of 5 runs]
343.15 K, 10100 kPa | 13.33 ± 0.29 mPa·s and 13.35 ± 0.29 mPa·s
343.15 K, 20100 kPa | 15.85 ± 0.33 mPa·s and 15.86 ± 0.33 mPa·s
343.15 K, 40000 kPa | 22.04 ± 0.47 mPa·s and 22.05 ± 0.47 mPa·s
343.15 K, 80100 kPa | 41.22 ± 0.89 mPa·s and 41.24 ± 0.89 mPa·s
343.15 K, 137100 kPa | 95.56 ± 2.2 mPa·s and 95.61 ± 2.2 mPa·s
343.24 K, 100 kPa | 11.1 ± 0.23 mPa·s
343.33 K, 100 kPa | 11.09 ± 0.23 mPa·s
343.53 K, 100 kPa | 11.15 ± 0.23 mPa·s
368.15 K, 300 kPa | 5.65 ± 0.12 mPa·s
368.21 K, 100 kPa | 5.627 ± 0.12 mPa·s
368.54 K, 100 kPa | 5.577 ± 0.12 mPa·s
373.15 K, 300 kPa | 5.04 ± 0.1 mPa·s and 5.05 ± 0.1 mPa·s and 4.92 ± 0.1 mPa·s
373.15 K, 20100 kPa | 6.876 ± 0.14 mPa·s and 6.866 ± 0.14 mPa·s
373.15 K, 40000 kPa | 9.055 ± 0.19 mPa·s and 9.075 ± 0.19 mPa·s and 9.085 ± 0.19 mPa·s
373.15 K, 80100 kPa | 15.22 ± 0.32 mPa·s and 15.23 ± 0.32 mPa·s
373.15 K, 137200 kPa | 30.11 ± 0.65 mPa·s and 30.12 ± 0.65 mPa·s and 30.15 ± 0.65 mPa·s
